In patent publication US20260242390A1, “TOTAL SYNTHESES OF PORTIMINE A AND ANALOGUES THEREOF AS SMALL MOLECULE MODULATORS OF NMD3” (priority 2023, published 2026):

System: Jurkat cells
Assay: Immunoblot of caspase 3 in Jurkat cells
Type: cell-based, human
Details: for cell apoptosis / Caspase 3 activation: Jurkat 5M per well, 2 nM-1000 nM, 12 hours; for cell apoptosis, immunoblot of caspase 3: Jurkat cells, 12 hours at 10 nM; for caspase-3 cleavage in Jurkat cells: dose-dependent, immunoblot
Excerpt: FIG. 1. Portimine A is non-toxic to primary human PBMCs. Portimine A and its functional analogs show stereo-selective acute toxicity in cancer cells. […] (B) Structure of portimine related analogs: phenyl-portimine A (Ph-PA, 36) and epi-portimine A (ePA, 38). Structure of fully functionalized portimine A-based epimeric probe pair: portimine A-diazirine-alkyne (PA-DA, 35-2) and epi-portimine A-diazirine-alkyne (ePA-DA, 35-1). (C) Cell viability analysis of portimine A and analogs. Jurkat cells were treated with increasing concentrations of portimine A and analogs for 24 hours. All presented data as mean of biological replicated experiments (n=3). […] Jurkat cells were treated with portimine A or analogs for 12 hours at 10 nM.
FIG. 3. Initial SAR studies: Assessing activity of PAL functionalized PTMA analogs. […] (A) PA and Ph-PA show less toxic to healthy PBMCs compared to Jurkat cells. […] (B) Immunoblot of caspase-3 in Jurkat and PBMCs with indicated conditions.
FIG. 5. […] (I, J) Confirmation of PA-DA engagement of NMD3 in Jurkat and HCC1806 cells. […] Treatment condition: Jurkat (5M per well). Portimine A concentration: 2 nM-1000 nM; In total treat cell for 12 hours.
• 1) Portimine A and its functional analogs show stereo-selective acute toxicity in cancer cells (FIG. 1). […] (B) Structure of portimine related analogs: phenyl-portimine A (Ph-PA, 36) and epi-portimine A (ePA, 38). Structure of fully functionalized portimine A-based epimeric probe pair: portimine A-diazirine-alkyne (PA-DA, 35-2) and epi-portimine A-diazirine-alkyne (ePA-DA, 35-1). (C) Cell viability analysis of portimine A and analogs. Jurkat cells were treated with increasing concentrations of portimine A and analogs for 24 hours. All presented data as mean of biological replicated experiments (n=3). […] Jurkat cells were treated with portimine A or analogs for 12 hours at 10 nM. […] Structurally related negative control ePA and PB are non-toxic in all cell types in the current concentrate range. PBMCs (25k per well), Jurkat (10k per well). […] Cell cycle analysis in Jurkat cells (FIG. 2). Jurkat cells were treated with 10 nM of indicated compounds for 24 hours, and propodium iodide was used to identify different stages of cells by flow cytometry. […] (A) PA and Ph-PA show less toxic to healthy PBMCs compared to Jurkat cells. […] (B) Immunoblot of caspase-3 in Jurkat and PBMCs with indicated conditions. […] (A) Pharmacokinetic studies of mouse intraperitoneal (i.p.) and oral (p.o.) administration for portimine (n=3). […] Impact of PA [0.3 or 1 mg/kg intraperitoneally] on MC38 tumor growth in WT mice (n=6). (C) Kaplan-Myer survival curve of WT MC38 tumor-bearing mice (n=6) after treatment with PA as described in (D). Mice were euthanized when tumor area exceeded 2000 mm^3. Statistical analysis was performed using ANOVA analysis followed by multiple comparisons test, * p≤0.05. Treatment condition: Jurkat (60 M per condition); PA-DA/ePA-DA concentration: 0.5 uM, PA or ePA: 5 uM; Incubate with probe with or without competitors (PA, ePA) for 30 min; UV irradiated for 20 min. (0.5 uM PA-DA add a no-UV condition), Standard pulldown & biotin-enrichment and western blot analysis (Elute condition: 2× sample buffer+500 uM biotin, boil for 20 mins); Primary antibody NMD3 (ProteinTech, 1:150), Actin (BioRad, 1:10000). […] Chemical proteomic profiling with PA-DA in Jurkat cells (A, B, C, G) and HCC1806 cells (D, E, F, H) show NMD3 is the primary target candidate of portimine A. Volcano plot in panels A and D show protein competition in cells treated with active photoaffinity probe PA-DA (500 nM) and DMSO or the active competitor portimine A (PA, […]), dotted lines indicate threshold of fold change <4, p-value>0.05. […] (I, J) Confirmation of PA-DA engagement of NMD3 in Jurkat and HCC1806 cells. […] Treatment condition: Jurkat (5M per well). Portimine A concentration: 2 nM-1000 nM; In total treat cell for 12 hours. […] Protein degradation of p53, Mcl1, Bid, Bim, Noxa can be rescued by MG132 or Epoxomicin. […]

Compound	cell apoptosis / Caspase 3 activation	cell apoptosis, immunoblot of caspase 3	caspase-3 cleavage in Jurkat cells
C=CC1=C[C@@H]2[C@@H]3O[C@]4(CC[C@H](O4)C(C)C[C@@H](O)C3=O)CC(O)C3=NCC[C@@]32CC1 (stereo partly shown) [PA, portimine A]	causes cell apoptosis in dose-dependent manner	induce cell apoptosis	induced caspase-3 cleavage in a dose-dependent manner
C#CCCC1(CCNC(=O)c2ccc(C3=C[C@@H]4[C@@H]5O[C@]6(CC[C@H](O6)C(C)C[C@@H](O)C5=O)CC(O)C5=NCC[C@@]54CC3)cc2)N=N1 (stereo partly shown) [PA-DA, portimine A-diazirine-alkyne]		induce cell apoptosis	induced caspase-3 cleavage in a dose-dependent manner
C=CC1=C[C@@H]2[C@@H]3OC4(CC[C@H](O4)C(C)C[C@@H](O)C3=O)CC(=O)C3=NCC[C@@]32CC1 (stereo partly shown) [PB, portimine B]		do not	
CC1C[C@@H](O)C(=O)[C@H]2O[C@]3(CC[C@@H]1O3)CC(O)C1=NCC[C@@]13CCC(c1ccccc1)=C[C@H]23 (stereo partly shown) [Ph-PA, phenyl-portimine A]		induce cell apoptosis	
C=CC1=C[C@@H]2[C@@H]3O[C@]4(CC[C@H](O4)C(C)C[C@@H](O)C3=O)C[C@@H](O)C3=NCC[C@@]32CC1 (stereo partly drawn) [ePA, epi-portimine A]	does not show significant Caspase 3 activation	do not	
C#CCCC1(CCNC(=O)c2ccc(C3=C[C@@H]4[C@@H]5O[C@]6(CC[C@H](O6)C(C)C[C@@H](O)C5=O)C[C@@H](O)C5=NCC[C@@]54CC3)cc2)N=N1 (stereo partly drawn) [ePA-DA, epi-portimine A-diazirine-alkyne]		do not	
